US20220064238A1, “Methods And Compositions For Modifying Transcription Factor Activity by Targeting The Human Mediator Complex Using Cell Penetrating Memetic Peptides And Methods of Treating Cancer Using The Same” (The Regents of the University of Colorado, a body corporate, priority 2020, published 2022)
pIC50: −log10 of the molar value. Bridge positions count the residues as written; N and C are the ends. Square brackets hold non-standard residues; d marks the D form. Peptide text beside a SMILES is read from it. PEG6 = NCCOCCOCCOCCOCCOCCOCCC(=O)O; R8 = C=CCCCCCC[C@@](C)(N)C(=O)O; S5 = C=CCCC[C@](C)(N)C(=O)O

Assays:
[1] = biological target: T1, VP16-Mediator binding (Homo sapiens, UniProt Q71SY5+Q9NVC6); assay: In vitro binding assay, VP16AD-Mediator; conditions: bivalent peptide 5 μM
T1 construct: endogenous in cells

[2] = system: Gal4-VP16 / Mediator; assay: In vitro transcription on chromatin templates activated by Gal4-VP16; assay type: biochemical, human; conditions: read-out: IC50, transcription in the presence of Gal4-VP16
Source text: Finally, we assessed whether the bivalent peptide would selectively block p53-dependent transcription compared with VP16, a viral activation domain. Whereas p53 and VP16 both interact with Mediator, they do so through different subunits (MED17 and MED25, respectively).
In vitro transcription: Chromatinized templates and in vitro transcription assays were generated and completed as described (Knuesel et al., 2009). Briefly, each activator (GAL4-p53AD or GAL4-VP16AD) was titrated to yield maximum transcription. While the activator bound the template, the general transcription factors (GTFs) were mixed in 0.1 M HEMG (10 mM HEPES pH 7.6, 100 mM KCl, 0.1 mM EDTA, 10% glycerol, 5.5 mM MgCl2) to give approximate final concentrations of 40 nM TFIIA, 10 nM IIB, 0.8 nM TFIID, 10 nM TFIIE, 10 nM TFIIF, 0.5 nM TFIIH and 2 nM pol II. A non-limiting amount of Mediator was then diluted in a separate salts mix (10 mM HEPES pH 7.6, 100 mM KCl, 2.5% PVA, 2.5% PEG, 7.5 mM MgCl2), along with 400 U of RNAseOUT, about 300 ng PC4 and about 300 ng HMGB1. On ice, the desired concentration of peptide was then added to the Mediator mix, followed by the GTF mix at a 5:11 ratio. The GTFs, Mediator and peptide were then incubated at least 5 minutes at 30° C. […]

SMILES: CC[C@H](C)[C@H](NC(=O)[C@H](CC(=O)O)NC(=O)[C@H](CC(=O)O)NC(=O)[C@@H]1CCCN1C(=O)[C@H](CO)NC(=O)[C@H](CC(C)C)NC(=O)CCOCCOCCOCCOCCOCCOCCNC(=O)[C@H](CCCNC(=N)N)NC(=O)[C@H](CCCNC(=N)N)NC(=O)[C@]1(C)CCCC=CCCCCCC[C@@](C)(NC(=O)[C@H](Cc2ccccc2)NC(=O)[C@H](CCCNC(=N)N)NC(=O)[C@H](CCC(=O)O)NC(=O)[C@H](CCC(N)=O)NC(=O)[C@H](CO)NC(=O)[C@H](CCCNC(=N)N)NC(C)=O)C(=O)N[C@@H](CC(=O)O)C(=O)N[C@@H](CC(C)C)C(=O)N[C@@H](Cc2c[nH]c3ccccc23)C(=O)N[C@@H](CCCCN)C(=O)N[C@@H](CCCNC(=N)N)C(=O)N[C@@H](CC(C)C)C(=O)N1)C(=O)N[C@@H](CCC(=O)O)C(=O)N[C@@H](CCC(N)=O)C(=O)N[C@@H](Cc1c[nH]c2ccccc12)C(=O)N[C@@H](Cc1ccccc1)C(=O)N[C@H](C(=O)N[C@@H](CCC(=O)O)C(=O)N[C@@H](CC(=O)O)C(N)=O)[C@@H](C)O [bivalent peptide] (Ac-RSQERF[R8]DLWKRL[S5]RR[PEG6]LSPDDIEQWFTED-NH2; staple 7-14; N-terminus assumed)
- effect on VP16AD binding to Mediator [1]: did not reduce VP16AD binding to Mediator
- increase in Mediator-bound VP16 in +peptide experiments (GST-VP16 normalized to MED15) ([1]; n=2): 1.67 fold
- pIC50 [2]: 6.37
